Reference: ChEMBL document CHEMBL4431361, “Development of indole sulfonamides as cannabinoid receptor negative allosteric modulators” (Bioorg Med Chem Lett, 2016)

Legend:
Cannabinoid receptor 1 = Cannabinoid receptor 1 (Homo sapiens, UniProt P21554); assay: Negative allosteric modulation of human CB1 receptor expressed in CHO-K1 cells assessed as inhibition of CP55940 induced beta arrestin recruitment preincubated for 30 mins followed by addition of CP55940 for 90 mins by chemiluminescence assay; assay type: functional, cell-based
Sequence of Cannabinoid receptor 1 (P21554 whole entry): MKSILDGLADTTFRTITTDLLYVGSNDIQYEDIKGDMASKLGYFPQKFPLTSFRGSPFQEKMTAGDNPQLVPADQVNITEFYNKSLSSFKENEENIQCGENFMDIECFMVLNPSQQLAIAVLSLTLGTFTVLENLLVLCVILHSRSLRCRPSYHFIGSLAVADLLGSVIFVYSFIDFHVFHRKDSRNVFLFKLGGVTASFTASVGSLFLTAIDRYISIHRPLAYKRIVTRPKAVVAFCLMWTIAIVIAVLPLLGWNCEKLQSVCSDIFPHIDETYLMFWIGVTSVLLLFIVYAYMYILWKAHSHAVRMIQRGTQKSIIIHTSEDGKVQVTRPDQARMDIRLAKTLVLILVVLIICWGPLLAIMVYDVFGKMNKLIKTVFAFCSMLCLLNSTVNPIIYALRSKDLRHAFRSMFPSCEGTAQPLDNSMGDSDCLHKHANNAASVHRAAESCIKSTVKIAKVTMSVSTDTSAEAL

[1] = Apparent permeability of the compound at 10 uM after 5 hrs by PAMPA; assay type: ADME
[2] = Ratio of drug level in […] brain to blood at 30mg/kg, ip after 1 hr by HPLC/MS/MS method; assay type: ADME, organism-based
[3] = Ratio of drug level in NMRI mouse brain to blood after 2 hrs; assay type: ADME, tissue-based
[4] = Cmax in NMRI mouse blood at 10 mg/kg, po; assay type: ADME, organism-based; set-up: dose 10 mg/kg, route oral
[5] = Tmax in NMRI mouse at 10 mg/kg, po; assay type: ADME, organism-based; conditions: in vivo
[6] = Half life in NMRI mouse at 10 mg/kg, po; assay type: ADME, organism-based; conditions: in vivo
[7] = AUC (0 to 8 hrs) in NMRI mouse at 10 mg/kg, po; assay type: ADME, organism-based; set-up: time < 8 hr, dose 10 mg/kg, route oral; conditions: in vivo
[8] = Half life in human liver microsomes at 3 uM in presence of NADPH by LC-MS/MS analysis; assay type: ADME, Microsome
[9] = Ratio of drug level in NMRI mouse brain to blood after 4 hrs; assay type: ADME, tissue-based
[10] = Half life in rat liver microsomes at 3 uM in presence of NADPH by LC-MS/MS analysis; assay type: ADME, Microsome

Row | SMILES | IC50 (Cannabinoid receptor 1) | also measured
1 | CCc1c(C(=O)NCCc2ccc(N3CCCCC3)cc2)[nH]c2ccc(Cl)cc12 | 2 nM | Papp at 5 h, 10 µM [1]: 1.23 ×10⁻⁶ cm/s; Kp at 1 h [2]: 1.1
2 | CN(C)c1ccc(-c2ccc(CNS(=O)(=O)c3cc4ccccc4[nH]3)cc2)cc1 | 3 nM | –
3 | Cc1c(S(=O)(=O)NCCCN2CCOCC2)[nH]c2ccccc12 | > 1000 nM | –
4 | CCc1c(S(=O)(=O)NCCc2ccc(N(C)C)cc2)[nH]c2ccc(Cl)cc12 | 130 nM | –
5 | O=S(=O)(NCc1ccc(-c2ccc(F)cc2F)cn1)c1cc2cc(Cl)ccc2[nH]1 | 3 nM | Papp at 5 h, 10 µM [1]: 53.8 ×10⁻⁶ cm/s; Kp at 2 h [3]: 3.3; Cmax [4]: 848 ng/mL; Tmax [5]: 1 h; half-life [6]: 180 min; AUC(0-t) at 8 h [7]: 4700 ng·h/mL
6 | Cc1ccc(CNS(=O)(=O)c2[nH]c3ccccc3c2C)cc1 | 200 nM | half-life at 3 µM [8]: 7 min
7 | CCc1c(S(=O)(=O)NCCc2ccc(N3CCOCC3)cc2)[nH]c2ccc(Cl)cc12 | 500 nM | half-life at 3 µM [8]: 10 min
8 | CS(=O)(=O)c1ccc(-c2ccc(CNS(=O)(=O)c3cc4ccccc4[nH]3)cc2)cc1 | 15 nM | –
9 | Cc1c(S(=O)(=O)NCCN2CCOCC2)[nH]c2ccccc12 | > 1000 nM | –
10 | COc1ccc(CNS(=O)(=O)c2cc3ccccc3[nH]2)cc1 | 200 to 400 nM | half-life at 3 µM [8]: 2 min
11 | O=S(=O)(NCc1ccc(-c2ccccc2)cc1)c1cc2ccc(F)cc2[nH]1 | 5 nM | –
12 | O=C(O)c1ccc(-c2ccc(CNS(=O)(=O)c3cc4ccccc4[nH]3)cc2)cc1 | > 1000 nM | –
13 | O=S(=O)(NCc1cccc(-c2ccc(F)cc2)c1)c1cc2ccccc2[nH]1 | 137 nM | –
14 | O=S(=O)(NCc1ccc(-c2ccc(F)nc2F)cc1)c1cc2cc(Cl)ccc2[nH]1 | 4 nM | Papp at 5 h, 10 µM [1]: 141 ×10⁻⁶ cm/s; Cmax [4]: 672 ng/mL; Tmax [5]: 4 h; half-life [6]: 474 min; AUC(0-t) at 8 h [7]: 4380 ng·h/mL; Kp at 4 h [9]: 0.8
15 | Cc1c(S(=O)(=O)NCc2ccc(Cl)cc2)[nH]c2ccccc12 | 400 nM | –
16 | COc1ccc(CNS(=O)(=O)c2cc3cc(OC)ccc3[nH]2)cc1 | 400 nM | –
17 | CCOc1ccc(-c2ccc(CNS(=O)(=O)c3cc4ccccc4[nH]3)cc2)cn1 | 10 nM | –
18 | O=S(=O)(NCc1ccc(-c2ccc(F)cc2)cc1F)c1cc2cc(Cl)ccc2[nH]1 | 21 nM | half-life at 3 µM [8]: 146 min; half-life at 3 µM [10]: 112 min
19 | Cc1c(S(=O)(=O)NCCc2ccc(N3CCCCC3)cc2)[nH]c2ccccc12 | 200 nM | –
20 | O=S(=O)(NCc1ccc(-c2ccc(F)cc2)cn1)c1cc2cc(Br)ccc2[nH]1 | 9 nM | half-life at 3 µM [10]: 25 min
21 | NC(=O)c1cccc(-c2ccc(CNS(=O)(=O)c3cc4ccccc4[nH]3)cc2)c1 | 300 nM | –

Row | SMILES | IC50 (Cannabinoid receptor 1) | also measured
22 | Cc1c(S(=O)(=O)NCc2cccc(Cl)c2)[nH]c2ccccc12 | 800 nM | –
23 | COc1ccc2[nH]c(S(=O)(=O)NCc3ccc(-c4ccc(OC(F)(F)F)cc4)cc3F)cc2c1 | 40 nM | half-life at 3 µM [10]: < 15 min
24 | COc1ccc2[nH]c(S(=O)(=O)NCc3ccc(-c4ccc(F)nc4)cc3)cc2c1 | 3 nM | half-life at 3 µM [8]: < 15 min; half-life at 3 µM [10]: < 15 min
25 | O=S(=O)(NCc1ccc(-c2ccccc2)cc1)c1[nH]c2ccccc2c1CO | 12 nM | –
26 | O=S(=O)(NCc1ccc(-c2ccc(F)cc2F)cc1)c1cc2cc(Cl)ccc2[nH]1 | 4 nM | half-life at 3 µM [8]: 111 min; half-life at 3 µM [10]: 84 min
27 | COc1ccc(CNS(=O)(=O)c2[nH]c3ccccc3c2C)cc1 | 200 nM | –
28 | COc1ccc(CNS(=O)(=O)c2[nH]c3ccc(Cl)cc3c2C)cc1 | 500 nM | –
29 | Cc1c(S(=O)(=O)NCc2ccc(C(F)(F)F)cc2)[nH]c2ccccc12 | 250 nM | –
30 | Cc1c(S(=O)(=O)NCCc2ccccc2)[nH]c2ccccc12 | 200 to 1000 nM | half-life at 3 µM [8]: 3 min
31 | Cc1c(S(=O)(=O)NCC2CCCCC2)[nH]c2ccccc12 | > 1000 nM | –
32 | COc1ccc2[nH]c(S(=O)(=O)NCc3ccc(-c4ccc(CO)cc4)cc3)cc2c1 | 112 nM | –
33 | Cc1c(S(=O)(=O)NCCc2ccc(N3CCOCC3)cc2)[nH]c2ccccc12 | > 1000 nM | –
34 | Cc1c(S(=O)(=O)NCc2ccccn2)[nH]c2ccccc12 | > 1000 nM | –
35 | Cc1cc(-c2ccc(F)cc2)ccc1CNS(=O)(=O)c1cc2cc(Cl)ccc2[nH]1 | > 1000 nM | –
36 | O=S(=O)(NCc1ccc(-c2ccccc2)cc1)c1cc2ccccc2[nH]1 | 2 nM | –
37 | O=S(=O)(NCc1ccc(-c2ccccc2)cc1)c1cc2cc(Br)ccc2[nH]1 | 6 nM | half-life at 3 µM [10]: < 15 min
38 | COCc1c(S(=O)(=O)NCc2ccc(-c3ccccc3)cc2)[nH]c2ccccc12 | 10 nM | –
39 | COc1ccc2[nH]c(S(=O)(=O)NCc3ccc(-c4ccc(C#N)cc4)cc3)cc2c1 | 8 nM | half-life at 3 µM [10]: 26 min
40 | CC(NS(=O)(=O)c1cc2ccccc2[nH]1)c1ccc(-c2ccc(F)cc2)cc1 (configuration not stated) | 41 nM | –
41 | O=S(=O)(NCc1ccc(-c2cccnc2)cc1)c1cc2ccccc2[nH]1 | 7 nM | half-life at 3 µM [10]: < 15 min
42 | O=S(=O)(NCc1ccc(-c2ccc(F)cc2)cc1)c1cc2ccccc2[nH]1 | 1 nM | half-life at 3 µM [10]: < 15 min

Row | SMILES | IC50 (Cannabinoid receptor 1) | also measured
43 | O=S(=O)(NCc1ccc(-c2ccc(F)cc2)cc1)c1cc2cc(Br)ccc2[nH]1 | 12 nM | half-life at 3 µM [10]: 130 min
44 | CS(=O)(=O)c1ccc(-c2ccc(CNS(=O)(=O)c3cc4cc(Cl)ccc4[nH]3)cc2)cc1 | 15 nM | half-life at 3 µM [8]: 41 min; half-life at 3 µM [10]: 36 min
45 | Nc1ccc(-c2ccc(CNS(=O)(=O)c3cc4cc(Cl)ccc4[nH]3)cc2)cn1 | 85 nM | –
46 | Cc1c(S(=O)(=O)NCc2ccccc2)[nH]c2ccccc12 | > 1000 nM | –
47 | Cc1c(S(=O)(=O)NCc2cccnc2)[nH]c2ccccc12 | > 1000 nM | –
48 | Cc1c(S(=O)(=O)NCCc2ccc(N(C)C)cc2)[nH]c2ccccc12 | 300 nM | half-life at 3 µM [8]: 13 min
49 | CCc1c(S(=O)(=O)NCCc2ccc(N3CCCCC3)cc2)[nH]c2ccc(Cl)cc12 | 120 nM | half-life at 3 µM [8]: 14 min
50 | O=S(=O)(NCc1ccc(-c2ccc(F)cc2F)cn1)c1cc2cc(Br)ccc2[nH]1 | 4 nM | half-life at 3 µM [8]: 53 min; half-life at 3 µM [10]: 33 min
51 | CCc1c(S(=O)(=O)NCc2ccc(Cl)cc2)[nH]c2ccc(Cl)cc12 | > 1000 nM | –
52 | Cc1cc(CNS(=O)(=O)c2cc3cc(Cl)ccc3[nH]2)ccc1-c1ccc(F)cc1 | > 1000 nM | –
53 | Cc1ccc(-c2ccc(CNS(=O)(=O)c3cc4ccccc4[nH]3)cc2)cc1 | 3 nM | –
54 | O=S(=O)(NCc1ccc(-c2ccc(F)nc2)cc1)c1cc2ccc(Cl)cc2[nH]1 | 5 nM | half-life at 3 µM [8]: 22 min; half-life at 3 µM [10]: 23 min; Kp at 2 h [3]: 2.7
55 | O=S(=O)(NCc1ccc(-c2ccccc2)cc1)c1cc2ccc(Cl)cc2[nH]1 | 4 nM | half-life at 3 µM [10]: < 15 min
56 | O=S(=O)(NCc1ccc(-c2ccsc2)cc1)c1cc2ccccc2[nH]1 | 12 nM | –
57 | COc1cc(-c2ccc(CNS(=O)(=O)c3cc4ccccc4[nH]3)cc2)ccc1O | 33 nM | –
58 | COc1ccc(-c2ccc(CNS(=O)(=O)c3cc4ccccc4[nH]3)cc2)cc1 | 2 nM | –
59 | Cc1c(S(=O)(=O)NCc2ccc(Cl)c(Cl)c2)[nH]c2ccccc12 | 800 nM | –
60 | Cc1c(S(=O)(=O)NCc2ccc(-c3ccccc3)cc2)[nH]c2ccccc12 | 8 nM | –
61 | COc1ccc(-c2ccc(CNS(=O)(=O)c3cc4ccccc4[nH]3)cc2)c(OC)c1 | 22 nM | –
